From patent publication EP0652220A1, “CEPHALOSPORIN DERIVATIVE” (TAISHO PHARMACEUTICAL CO. LTD, priority 1992, dated 1994) come the findings set out here.

Data set [1] can be described thus: concentration of the drug in blood after oral administration to mice. It is filed as in vivo, male ICR strain mice. More on the design: unit not given here. The note with it: 20 mg/kg suspended in 5% gum arabic, bioassay (Bacillus cereus S1101). The method, then:
Three male ICR strain mice (4 weeks old) for each group were administered orally with the test drug, and the change of the concentration of the drug in blood was measured with the lapse of time. Dose of drug: 20 mg/kg (suspended in 5% gum arabic) Quantitative method: Bioassay method (test bacteria: Bacillus cereus S1101)

Data set [2] concerns Serratia marcescens IID 618. The data set is described as follows: antibacterial test, agar plate dilution method. It is filed as cell-based. The note with it: inoculum size 10⁶ cells/ml. The method, then:
(§1) The antibacterial test against various bacteria was carried out by the agar plate dilution method (inoculum size : 10⁶ cells/ml), and the results are shown in the following Table 1.

Data set [3] has as its system Staphylococcus epidermidis sp-al-1. The data set can be described thus: antibacterial test, agar plate dilution method. It is filed as cell-based. The note with it: inoculum size 10⁶ cells/ml. The method, then: as §1
Data set [4] relates to Proteus mirabilis IFO 3849. The data set can be described thus: antibacterial test, agar plate dilution method. The note with it: inoculum size 10⁶ cells/ml. It is filed as cell-based. The method, then:
as §1

For data set [5], the system named is Morganella morganii IID 602. The data set is described as follows: antibacterial test, agar plate dilution method. It is filed as cell-based. The note with it: inoculum size 10⁶ cells/ml. The method, then: as §1
The test system of data set [6] is Haemophilus influenzae ATCC 19418. The data set is described as follows: antibacterial test, agar plate dilution method. The data set is classed as cell-based. The note with it: inoculum size 10⁶ cells/ml. The method, then: as §1
The test system of data set [7] is Enterococcus faecalis CSJ 1212. The data set is described as follows: antibacterial test, agar plate dilution method. The data set is classed as cell-based. The note with it: inoculum size 10⁶ cells/ml. The procedure: as §1
In data set [8] the test system is Staphylococcus aureus 209P-JP. The data set can be described thus: antibacterial test, agar plate dilution method. It is filed as cell-based. The note with it: inoculum size 10⁶ cells/ml. The procedure: as §1
Data set [9] concerns Klebsiella pneumoniae IFO 3317. The data set can be described thus: antibacterial test, agar plate dilution method. It is filed as cell-based. The note with it: inoculum size 10⁶ cells/ml. The method, then:
as §1

The subject of data set [10] is Eschelichia coli NIHJ JC-2. The data set is described as follows: antibacterial test, agar plate dilution method. It is filed as cell-based. The note with it: inoculum size 10⁶ cells/ml. The procedure:
as §1

The nature of data set [11]: mortality after a single intraperitoneal dose in mice. The data set is classed as in vivo, male ICR strain mice. The note with it: single dose 4,000 mg/kg intraperitoneal, 50 ml/kg (saline), 3 mice per group, observation for 14 days. The procedure:
The mortality after a single dose of the test drug was measured using 3 male ICR strain mice (4 weeks old) for each group. Administration route : intraperitoneal Administration volume : 50 ml/kg (saline) Dose : 4,000 mg/kg Observation period : for 14 days after the administration The results are shown in Table 3.

Turning to `C=CC1=C(C(=O)O)N2C(=O)[C@@H](NC(=O)/C(=N\O)c3csc(N)n3)[C@H]2SC1` [C, Cefnidir], the “concentration of the drug in blood” value in data set [1] (0.25 hour after administration) turned out to be 1.8; in data set [1] (0.5 hour after administration), 2.0; in data set [1] (1.0 hour after administration), 2.5; in data set [1] (2.0 hour after administration), 1.2; in [1] (4.0 hour after administration), 0.1. Further, the antibacterial activity came out at 0.78 in [2]; 0.39 in data set [3]; 0.20 in data set [4]; 0.78 in data set [5]; 0.39 in data set [6]; 1.56 in [7]. Besides, the antibacterial activity in [8] turned out to be 0.39; in [9], 0.10; in data set [10], 0.39.
As for `C#CCSC1=C(C(=O)OCOC(=O)C(C)(C)C)N2C(=O)[C@@H](NC(=O)/C(=N\O)c3csc(N)n3)[C@H]2SC1` [E, pivaloyloxymethyl 7β-{2-(2-aminothiazol-4-yl)-2-[(Z)-hydroxyimino]acetamido}-3-(2-propynyl)thio-3-cephem-4-carboxylate], the “concentration of the drug in blood” value was determined as 14.0 in [1] (0.25 hour after administration); 18.4 in [1] (0.5 hour after administration); 15.4 in data set [1] (1.0 hour after administration); 8.4 in [1] (2.0 hour after administration); 4.0 in data set [1] (4.0 hour after administration).
`C=CCSC1=C(C(=O)[O-])N2C(=O)[C@@H](NC(=O)/C(=N\O)c3csc(N)n3)[C@H]2SC1.[Na+]` [D, 7β-{2-(2-aminothiazol-4-yl)-2-[(Z)-hydroxyimino]acetamido}-3-allylthio-3-cephem-4-carboxylic acid sodium salt]: the antibacterial activity in [2] is recorded as 1.56; in data set [3] it was 0.20; in data set [4], 0.20; in data set [5] it was 0.20; in data set [6], 0.39; in [7] it was 3.13. The antibacterial activity in [8] is reported as 0.20; in data set [9], 0.20; in data set [10], 0.39. The Mortality in data set [11] is given as 2/3.
In the case of `C#CCSC1=C(C(=O)[O-])N2C(=O)[C@@H](NC(=O)/C(=N\O)c3csc(N)n3)[C@H]2SC1.[Na+]` [A, 7β-{2-(2-aminothiazol-4-yl)-2-[(Z)-hydroxyimino]-acetamido}-3-(2-propynyl)thio-3-cephem-4-carboxylic acid sodium salt], the antibacterial activity is 0.78 in [2]; 0.20 in data set [3]; 0.10 in [4]; 0.10 in data set [5]; 0.20 in data set [6]; 1.56 in [7]. In addition, the antibacterial activity is listed as 0.20 in [8], 0.05 in [9] and 0.20 in data set [10]. Also, in data set [11], the Mortality is recorded as 0/3.
For the compound `C=CC1=C(C(=O)O)N2C(=O)[C@@H](NC(=O)/C(=N\OCC(=O)O)c3csc(N)n3)[C@H]2SC1` [B, Cefixime], the antibacterial activity in [2] is recorded as 0.20; in data set [3], 25; in [4], 0.025; in data set [5], 0.20; in data set [6] it was 0.05; in data set [7], >100. Further, the antibacterial activity in data set [8] came out at 25; in [9], 0.025; in data set [10], 0.39.
